Experimental data published in patent publication US6831039B1, “3-(heterocyclyl)-substituted benzolpyrazols” (BASF Aktiengesellschaft, priority 1998, dated 2004).

What was measured:
Assay in all cases: Greenhouse post-emergence herbicidal test
[1] = tested on: pigweed; type: in vivo, Amaranthus retroflexus; conditions: 0.25 or 0.125 kg/ha
Text: (§1) The seeds of the test plants were sown separately for each species. For the post-emergence treatment, the test plants were first grown to a height of 3 to 15 cm, depending on the plant habit, and only then treated with the active compounds which had been suspended or emulsified in water. The test plants were, for this purpose, either sown directly and grown in the same containers, or they were first grown separately as seedlings and transplanted into the test containers a few days prior to treatment. The application rate for the post-emergence treatment was 0.5, 0.25, 0.125 or 0.0625 kg of a.s. (active substance)/ha. Depending on the species, the plants were kept at 10-25° C. or 20-35° C. The test period extended over 2 to 4 weeks. During this time, the plants were tended, and their response to the individual treatments was evaluated. The evaluation was carried out using a scale from 0 to 100. 100 means no emergence of the plants, or complete destruction of at least the aerial parts and 0 means no damage, or normal course of growth. The plants used in the greenhouse experiments were of the following species: [table]

[2] = tested on: lady's-thumb; type: in vivo, Polygonum persicaria; conditions: 0.25 or 0.125 kg/ha
Text: as §1

[3] = tested on: green foxtail; type: in vivo, Setaria viridis
Text: as §1

[4] = tested on: wild oat; type: in vivo, Avena fatua; conditions: 0.25 or 0.125 kg/ha
Text: as §1

[5] = tested on: white mustard; type: in vivo, Sinapis alba; conditions: 0.25 or 0.125 kg/ha
Text: as §1

[6] = tested on: barnyard grass; type: in vivo, Echinochloa crus galli; conditions: 0.5 or 0.25 kg/ha
Text: as §1

[7] = tested on: lamb's-quarters; type: in vivo, Chenopodium album; conditions: 0.5 or 0.25 kg/ha
Text: as §1

[8] = tested on: black nightshade; type: in vivo, Solanum nigrum; conditions: 0.5 or 0.25 kg/ha
Text: as §1

Cc1c(C(=O)c2cnn(C(C)C)c2O)ccc(S(C)(=O)=O)c1C1=NOCC1 [Compound 2.9]
very good: post-emergence action on grasses and weeds [1] | post-emergence action on grasses and weeds [2] | post-emergence action on grasses and weeds ([3]; 0.25 or 0.125 kg/ha) | post-emergence action on grasses and weeds [4] | post-emergence action on grasses and weeds [5]

Cc1nn(C(C)(C)C)c(O)c1C(=O)c1ccc(S(C)(=O)=O)c(C2=NOCC2)c1C [Compound 2.8]
very good: post-emergence control of harmful plants [6] | post-emergence control of harmful plants [7] | post-emergence control of harmful plants [8] | post-emergence control of harmful plants ([3]; 0.5 or 0.25 kg/ha)
